Here are results for 5 molecules from patent publication US6310093A (priority 1998, dated 2001).

Series [1] relates to neuronal cells in culture.
For series [2], the target named is T1, glutaminase in damaged neurons (Mus musculus, UniProt D3Z7P3).
T1 sequence (D3Z7P3 73-674 limits assumed): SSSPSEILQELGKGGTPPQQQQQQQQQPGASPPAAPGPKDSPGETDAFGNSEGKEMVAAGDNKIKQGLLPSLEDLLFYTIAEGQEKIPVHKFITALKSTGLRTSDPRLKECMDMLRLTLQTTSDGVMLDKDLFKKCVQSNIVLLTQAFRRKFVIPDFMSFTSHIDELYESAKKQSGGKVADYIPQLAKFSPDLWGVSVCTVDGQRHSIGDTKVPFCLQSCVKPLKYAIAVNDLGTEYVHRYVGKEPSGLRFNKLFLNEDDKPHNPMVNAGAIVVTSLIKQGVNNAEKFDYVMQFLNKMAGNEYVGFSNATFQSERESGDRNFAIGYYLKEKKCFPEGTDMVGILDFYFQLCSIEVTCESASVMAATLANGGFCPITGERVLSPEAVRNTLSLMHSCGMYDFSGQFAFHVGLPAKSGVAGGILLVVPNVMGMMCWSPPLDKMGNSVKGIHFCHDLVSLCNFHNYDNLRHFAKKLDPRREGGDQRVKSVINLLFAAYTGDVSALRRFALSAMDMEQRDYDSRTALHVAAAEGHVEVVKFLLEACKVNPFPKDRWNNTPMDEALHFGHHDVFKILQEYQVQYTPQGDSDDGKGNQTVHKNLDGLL

The conditions of series [3]: Kaneko et al. 1992; cited from earlier work.
The subject of series [4] is hippocampal slices (field potential).
Series [5] concerns the target T2, glutaminase in live (intact) neurons (Mus musculus, UniProt D3Z7P3).
T2 sequence (D3Z7P3 55-674): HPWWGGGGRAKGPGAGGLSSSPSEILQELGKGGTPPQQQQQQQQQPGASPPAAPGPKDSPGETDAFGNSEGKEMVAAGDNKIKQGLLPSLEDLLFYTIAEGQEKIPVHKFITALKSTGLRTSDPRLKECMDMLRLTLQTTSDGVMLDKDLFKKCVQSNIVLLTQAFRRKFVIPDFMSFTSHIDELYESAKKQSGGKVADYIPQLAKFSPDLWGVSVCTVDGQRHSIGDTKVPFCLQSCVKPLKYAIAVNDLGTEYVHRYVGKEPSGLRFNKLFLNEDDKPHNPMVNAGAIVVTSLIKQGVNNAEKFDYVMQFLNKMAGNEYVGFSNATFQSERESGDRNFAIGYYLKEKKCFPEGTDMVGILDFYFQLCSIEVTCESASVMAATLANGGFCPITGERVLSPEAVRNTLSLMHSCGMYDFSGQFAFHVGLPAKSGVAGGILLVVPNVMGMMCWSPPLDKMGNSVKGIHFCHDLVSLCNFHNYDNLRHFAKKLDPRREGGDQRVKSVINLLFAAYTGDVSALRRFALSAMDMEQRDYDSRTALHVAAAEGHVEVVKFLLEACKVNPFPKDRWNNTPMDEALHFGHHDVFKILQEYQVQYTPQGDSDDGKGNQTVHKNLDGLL
Format: cell-based, mouse (Swiss Webster).

For series [6] the following is noted: Huber; cited from earlier work.
Series [7] deals with glial cultures (astrocytes). Particulars: Hertz; Drejer; read-out: Km for cellular uptake of glutamate; cited from earlier work.
Series [8] deals with mixed glial-neuronal cultures. In words: Glutamate uptake (clearance) by mixed glial-neuronal cultures. The class given is cell-based, mouse (Swiss Webster). How it is done: (§1) This allows expression of medium glutamate concentrations as:
(§2) where [Glu], in units of μM, is the concentration of glutamate in the 0.4 ml of medium in a culture well, S (in μM/min) is the rate of addition of glutamate to the culture medium from cellular sources, and k (in min^-1) is the empirically determined rate constant for clearance (Roberts). […] Although the value of k is proportional to cell (carrier) density, little variation is expected in cultures containing glia, as glial cultures are confluent.
(§3) where [Glu], in units of μM, is the concentration of glutamate in the 0.4 ml of medium in a culture well, S (in μM/min) is the rate of addition of glutamate to the culture medium from cellular sources, and k (in min^-1) is the empirically determined rate constant for clearance (Roberts, D. V. (1977) Enzyme Kinetics, Cambridge University Press, Cambridge, pp23-30.). […] Although the value of k is proportional to cell (carrier) density, little variation is expected in cultures containing glia as glial cultures are confluent.

In series [9] the test system is glial cultures (astrocytes). The class given is cell-based, mouse (Swiss Webster).
A further series concerns neuronal cultures. As to the kind of experiment: Glutamate uptake (clearance) by neuronal cultures. The class given is cell-based, mouse (Swiss Webster). Particulars: intact neurons. As for the experimental part: as §1, §2, §3
A further series relates to isolated neurons. The note with it: Rosenberg; Dugan et al., 1995; read-out: IC50 for toxicity of glutamate on isolated neurons; cited from earlier work.
Series [10] addresses T3, glutaminase (brain membranes) (Rattus norvegicus, UniProt P13264).
T3 construct: Membranes are prepared by homogenization of brain tissue in 330 mM sucrose; from tissue; host or cells: rat brain, crude membranes (17000 G pellet)
T3 sequence (P13264 73-674 limits assumed): T1 sequence (D3Z7P3 73-674 limits assumed) with I64V, G590E
As to the kind of experiment: biochemical.

The subject of series [11] is mixed neuronal-astrocyte cultures.
Series [12] shares this test system. As to the kind of experiment: cells. Particulars: Mus musculus, 24 h, read-out: % cell death (LDH).
Series [13] relates to neuronal cells in culture. In words: cells. The note with it: Mus musculus, read-out: LDH release by NMDA exposure relative to freeze-thaw. (In general: Release of lactate dehydrogenase indicates damage to the cell membrane.)
Series [14] has as its system pure neuronal cultures (cortical neurons) exposed to glutamine.
Series [15] concerns ischemic penumbra (dialysate glutamate). As to the kind of experiment: In vivo microdialysis of ischemic penumbra after MCAO. The arrangement: species or system rat. The note with it: subsequent perfusion of phosphate; ±400%. As for the experimental part: In further microdialysis experiments, exogenous glutamine was added to the ischemic penumbra via the probe, and dialysis glutamate was measured, as described in Example 7. When 10 mM glutamine plus 20 mM sodium phosphate were perfused into the penumbra for one hour, dialysate glutamate was elevated 315% as compared to control (±115%). […] The effects on glutamate were much more pronounced than on other amino acids measured; therefore, these studies provided further support for the involvement of extracellular glutaminase activity in producing the elevated levels of glutamate in cortical tissue undergoing ischemic damage.
The middle cerebral arteries of rats were occluded as in EXAMPLE 7, and the rats were returned to their cages overnight. The next morning, dialysis probes ([…], 2 mm length, 20,000 dalton cutoff) were inserted into ischemic penumbra (cortex) and perfused with artificial CSF at 3 μl/min for 1 h prior to collection of 10 minute fractions of dialysate. The effectiveness of the occlusion and the placement of probes were verified by TTC staining of 1 mm sections at the conclusion of the experiment. Amino acids in the dialysate were measured by reverse phase HPLC with fluorescence detection, after derivatization of the dialysates with o-phthaldialdehyde and N-acetyl-L-cysteine […]

[16] abbreviates: 7 h hypoxia, 2 mM Gln + 30 uM pCMPS.

In general, Km refers to the concentration of substrate that gives half-maximal velocity. Broadly, the IC50 is the concentration that inhibits the measured activity by half.

Where a chain is given by its changes, count along the chain named. Several values for one entry are separate records, joined by “and”; a condition that tells them apart may be missing. Equal entries are not always repeated. Where two headings read alike, the source gives them in different places.

As to `[N-]=[N+]=CC(=O)CC[C@H](N)C(=O)O` [DON, 6-diazo-5-oxo-L-norleucine], the “LDH release from neuronal cells (in words)” value in series [1] was “resulted in release of lactate dehydrogenase from the cells, indicating cellular toxicity and death”. For the same molecule, in series [2], the “inhibition of glutamate production” value is 90% and 50%; the “inhibition of glutaminase activity in damaged cells (in words)” value is listed as “inhibit glutaminase activity in damaged cells”. Moreover, the “toxicity and tissue penetration after CNS administration (in words)” value in [3] was “toxicity and poor tissue penetration”. The “effect on hippocampal field potential (in words)” value in [4] is “decreased the magnitude and prolonged the duration of the field potential”. Also, in series [5], the “effect on glutaminase activity of intact/live neurons (in words)” value was “inhibition of glutaminase”; the “glutamate production after neuronal death” value was 0.23 ± 0.03 μM Glu/min and 0.15 ± 0.02 μM Glu/min. The “crossing of cell membranes (in words)” value in [6] is reported as “readily cross cell membranes”.
Consider `N[C@@H](CCC(=O)O)C(=O)O` [L-glutamic acid], for which the Km in series [7] was ~45 µM. For the same molecule, in series [8] (15 μM glutamate), the “first order rate constant for glutamate uptake” value was 0.072 min⁻¹. The “Glutamate uptake (k)” value in series [8] (Table 2, glial-neuronal) amounted to 0.072. Also, in series [9], the “Glutamate uptake (k)” value is reported as 0.083, the “first order rate constant for glutamate uptake” value was determined as 0.083 min⁻¹ and the “glutamate uptake rate of glial vs neuronal cultures” value is “about 7 times”. Moreover, in the series on neuronal cultures, the “Glutamate uptake (k)” value was 0.012 min⁻¹. Besides, the IC50 in the series on isolated neurons is 5 to 10 µM. The “glutaminase inhibition (in words)” value in [10] was “no significant effect on enzyme activity at 3.3 mM”. For the same molecule, in series [10] (read-out: Glutaminase Activity), the activity at 1000 µM turned out to be 105 ± 15% and the activity at 3300 µM was determined as 113 ± 32%.
Take `CN[C@H](CC(=O)O)C(=O)O` [NMDA, N-methyl-D-aspartate]: the Glu in [11] is 7.0 ± 0.6. Also, the cytotoxicity at 500 µM was 100% in [12] and ~85% in series [13].
`O=S(=O)(O)c1cc[c]([Hg][Cl])cc1` [pCMPS, p-(chloromercuri)phenyl sulfonic acid]: the “effect on medium glutamate and release of LDH in hypoxic mixed cultures (in words)” value in series [11] (30 μM pCMPS, 2 mM glutamine, hypoxia 7h) was “lowered medium glutamate and release of LDH”. Also, in series [11] (setting [16]), the medium glutamate was determined as 1.45 ± 1.0 μM Glu and the “neuronal LDH release” value is 38.5 ± 8.1%. Also, the “LDH release from control cultures (in words)” value in [1] (30 μM) is given as “did not cause LDH release from control cultures”. Also, in [14], the “LDH release caused by glutamine exposure (in words)” value is reported as “prevented the release of LDH”, the medium glutamate amounted to 10.3 ± 4 μM Glu, the “neuronal morphology (in words)” value is “neurons retained their normal appearance after 24 h” and the “neuroprotection (in words)” value was “protected pure neuronal cultures from neuronal damage caused by exposure to glutamine”. Besides, in series [14] (mouse, pure neuronal cultures, 24 h, 30 µM), the “neuronal LDH release” value is 17 ± 10.5. Besides, the “concentration required to inhibit glutaminase” value in [2] was 10 to 30 µM. Also, the “inhibition of glutamine hydrolysis by NMDA-damaged neurons (in words)” value in series [2] (30 μM) is reported as “almost completely inhibited”. The “glutamate generation by NMDA-damaged neurons (in words)” value in series [2] (600 μM) is given as “completely abolished glutamate generation”. Moreover, the “effect on hippocampal field potential (in words)” value in series [4] (120 μM, 60 min perfusion) was “no effect on the field potential”. The “glial uptake of glutamate (in words)” value in series [9] (at much higher concentrations than inhibition of exposed glutaminase) is listed as “blocks glial uptake of glutamate”. The “effect on glutaminase activity of intact/live neurons (in words)” value in [5] is listed as “lack of effect”.
In the case of `O=P(O)(O)O` [phosphate, sodium phosphate], the “increase of glutamate generation” value in [2] (mixed neuronal-glial cultures, 20000 µM) was 8 fold. The “dialysate glutamate, % of control” value in [15] is 845 % of control.
